According to patent publication US3981868A:
≈ marks a conversion by molar mass, not a printed value.

Experiments:
[1] = tested on: dl-PGE1-induced contraction of gerbil colon; experiment: inhibition of dl-PGE1-induced contraction of gerbil colon; conditions: approximate; for ID50 vs. 20 ng. of PGE1 /ml.: sub-maximal challenge, 20 ng./ml. dl-PGE1, 50% inhibition of maximum response
Protocol: Testing for prostaglandin antagonist action is carried out in the following manner.
Sections of ascending colon, approximately 20 mm. long, from mature male gerbils (Meriones unguiculatus) weighing 70-80 g. were mounted in DeJalon's solution (154 mM NaCl; 5.95 mM NAHCO3 ; 278 mM glucose, 5.64 mM KCl and .27 mM Cacl2 in 20 ml. tissue baths) (L. and K Glass Co., Lynnhurst, N.J.). The medium was continually gassed with a mixture of 95% 02 -5% CO2 and maintained at 37°C. The tissues were suspended via silk suture threads between a glass hook at the base and a model FT .03C force displacement transducer (Grass Instrument, Quincy, Mass.).
After mounting, tissues were allowed to stabilize 15-20 minutes during which time adjustments were made to establish and maintain a 0.5 g. resting tension on the muscle. Thereafter, test cycles of 3-5 minutes were begun and consisted of a 1 minute exposure to the potential antagonist, if called for, followed by a 1 minute exposure to the prostaglandin agonist, a 15-30 sec. washout and a recovery period of 2-2.5 minutes. […] During the washout period, the tissue was rinsed with a measured amount equalling 8 volumes of medium. Muscle relaxation was virtually complete by the end of the washout period.
Following stabilization, muscles were exposed 2 to 3 times to this concentration of dl-PGE1 until a consistent response was recorded. Once maximal responses are established, test cycles with potential antagonists were commenced and were followed alternatively with prostaglandin-only test cycle. […] The contraction of the muscle induced by 200 ng./ml. dl-PGE1 following exposure to a given concentration of the potential antagonist was always compared to the response of the tissue to that level of dl-PGE1 in the immediately preceding cycle. Using a series of potential antagonist concentrations, an approximate ID50 (concentration at which 50% inhibition was observed) was established.

[2] = tested on: diastolic blood pressure; experiment: hypotensive activity in anesthetized rats (minimal dose lowering diastolic blood pressure about 10 mm.); assay type: in vivo, Male Wistar strain rats; conditions: Rattus norvegicus; intravenous; dose producing a decrease of about 10 mm. in diastolic blood pressure
Protocol: This procedure is a modification of the technique described by Pike et al., Prostaglandins, Nobel Symposium 2, Stockholm, June, 1966; p. 165.
Male Wistar strain rats (Royal Hart Farms) averaging approximately 250 grams in weight were fastened to rat boards in a supine position by means of canvas vests and limb ties. The femoral area was infiltrated subcutaneously with lidocaine and the iliac artery and vein were exposed and cannulated. Arterial blood pressure (systolic/diastolic) was recorded using a Statham P23 Db pressure transducer-Offner dynograph system. To obtain a stable blood pressure, the animals were anesthetized before use with pentobarbital, 30 mg./kg. of body weight intravenously, and also were given hexamethonium bitartrate, 2 mg./kg., of body weight intravenously. The test compounds were prepared by ultrasonic dispersion in a saline-Tween 80 vehicle. A constant intravenous dose volume of 0.5 ml. was administered and test doses ranged from 0.1 to 10.0 mg./kg. of body weight. Increasing or decreasing doses were selected depending on the dose response obtained. In Table I below are set forth the minimal doses required to produce a decrease of about 10 mm. in diastolic blood pressure for typical compounds of the present invention.

[3] = tested on: Streptococcus pyogenes C 203; experiment: agar-dilution streak-plate antibacterial assay (8); assay type: cell-based; conditions: C203, read-out: Minimal inhibitory conc.
Protocol: (§1) The novel compounds of the present invention are also useful as antimicrobial agents. […] In this assay, the compounds to be tested are made up to contain 2.5 mg. of test compound per milliliter of solution. Observing sterile techniques, two-fold serial dilutions are made of each test solution. One milliliter of each of the original solutions and of each of the serial dilutions is then added to 9 ml. of warm sterile nutrient agar capable of supporting growth of the bacterial test cultures. A second set of agar dilutions is prepared identical to the first except that the nutrient agar is designed to support the growth of the fungal test cultures. […] The test bacteria and yeast-like fungi are prepared for use by growing in broth overnight. The spores of the filamentous fungi are harvested from mature agar slant cultures and are suspended in sterile physiological saline solution. A loopful of each of the resulting live suspensions is then, still employing sterile techniques, streaked upon the surfaces of each of the agar plates and the resulting streaked plates are then incubated. After an appropriate period of time, each of the streaks on each of the plates is inspected visually and the extent, if any, of bacterial or fungal growth is noted. The minimal inhibitory concentration (expressed in micrograms per milliliter) is defined as the concentration of test compound causing complete inhibition of growth of any particular organism. In a representative operation, and merely by way of illustration, the minimal inhibitory concentration of typical compounds of the present invention against a variety of test organisms as determined in the above-described assay are set forth in Tables II and III below: […]

[4] = tested on: Microsporum canis ATCC 10214; experiment: agar-dilution streak-plate antifungal assay (1); assay type: cell-based; conditions: ATCC10214, read-out: Minimal inhibitory conc.
Protocol: as §1

[5] = tested on: Trichophyton mentagrophytes E 11?; experiment: agar-dilution streak-plate antifungal assay (4); assay type: cell-based; conditions: read-out: Minimal inhibitory conc.
Protocol: as §1

[6] = tested on: Trichophyton tonsurans NIH 662; experiment: agar-dilution streak-plate antifungal assay (3); assay type: cell-based; conditions: NIH662, read-out: Minimal inhibitory conc.
Protocol: as §1

[7] = tested on: Mycobacterium smegmatis ATCC 606; experiment: agar-dilution streak-plate antibacterial assay (6); assay type: cell-based; conditions: Mycolicibacterium smegmatis, ATCC606, read-out: Minimal inhibitory conc.
Protocol: as §1

[8] = tested on: Microsporum gypseum ATCC 14683; experiment: agar-dilution streak-plate antifungal assay (2); assay type: cell-based; conditions: Nannizzia gypsea, ATCC14683, read-out: Minimal inhibitory conc.
Protocol: as §1

[9] = tested on: Staphylococcus aureus Rose ATCC 14154; experiment: agar-dilution streak-plate antibacterial assay (7); assay type: cell-based; conditions: ATCC14154, read-out: Minimal inhibitory conc.
Protocol: as §1

[10] = tested on: Trichophyton rubrum E 97; experiment: agar-dilution streak-plate antifungal assay (5); assay type: cell-based; conditions: E97, read-out: Minimal inhibitory conc.
Protocol: as §1

Compound | ID50 vs. 20 ng. of PGE1 /ml. [1] | ID50 vs. 200 ng. of PGE1 ml. ([1]; maximal challenge, 200 ng./ml. dl-PGE1) | minimal effective dose [2] | MIC [3] | MIC [4] | MIC [5] | MIC [6] | MIC [7] | MIC [8] | MIC [9] | MIC [10]
CCCCCC/C=C/[C@H]1CCC(=O)[C@@H]1CCCCCCC(=O)N1CC2CCC(CC2)C1 (relative stereo) | 4 µg/mL | – | – | – | – | – | – | – | – | – | –
CCCCCC/C=C/[C@H]1CCC(=O)[C@@H]1CCCCCCC(=O)N1CCN(C)CC1 (relative stereo) | 0.5 µg/mL | 3 µg/mL | – | – | – | – | – | – | – | – | –
CCCCCC/C=C/[C@H]1CCC(=O)[C@@H]1CCCCCCC(=O)N1CCN(c2ccccc2)CC1 (relative stereo) | – | – | 8 mg/kg | – | – | – | – | – | – | – | –
CCCCCC/C=C/[C@H]1CCC(=O)[C@@H]1CCCCCCC(=O)N1CCOCC1 (relative stereo) | – | – | 1 mg/kg | 25 µg/mL (≈ 63.8 µM) | 250 µg/mL (≈ 638 µM) | 250 µg/mL (≈ 638 µM) | 250 µg/mL (≈ 638 µM) | 25 µg/mL (≈ 63.8 µM) | – | – | –
CCCCCC/C=C/[C@H]1CCC(=O)[C@@H]1CCCCCCC(=O)N1CCCC1 (relative stereo) | 1 µg/mL | – | 8 mg/kg | 5 µg/mL (≈ 13.3 µM) | 100 µg/mL (≈ 266 µM) | 50 µg/mL (≈ 133 µM) | 50 µg/mL (≈ 133 µM) | 5 µg/mL (≈ 13.3 µM) | 10 µg/mL (≈ 26.6 µM) | 50 µg/mL (≈ 133 µM) | 25 µg/mL (≈ 66.6 µM)
CCCCCC/C=C/[C@H]1CCC(=O)[C@@H]1CCCCCCC(N)=O (relative stereo) [9-oxo-13-trans-prostenamide] | 5 µg/mL | – | 2 mg/kg | 10 µg/mL (≈ 31.1 µM) | 50 µg/mL (≈ 156 µM) | 25 µg/mL (≈ 77.8 µM) | 50 µg/mL (≈ 156 µM) | 25 µg/mL (≈ 77.8 µM) | 50 µg/mL (≈ 156 µM) | 50 µg/mL (≈ 156 µM) | 50 µg/mL (≈ 156 µM)
CCCCCC/C=C/[C@H]1CCC(=O)[C@@H]1CCCCCCC(=O)N(C)C (relative stereo) [N,N-dimethyl-9-oxo-13-trans-prostenamide] | 2 µg/mL | – | 2 mg/kg | 10 µg/mL (≈ 28.6 µM) | 25 µg/mL (≈ 71.5 µM) | 25 µg/mL (≈ 71.5 µM) | 25 µg/mL (≈ 71.5 µM) | 10 µg/mL (≈ 28.6 µM) | 25 µg/mL (≈ 71.5 µM) | 25 µg/mL (≈ 71.5 µM) | 25 µg/mL (≈ 71.5 µM)
CCCCCC/C=C/[C@H]1CCC(=O)[C@@H]1CCCCCCC(=O)NCCO (relative stereo) [N-(2-hydroxyethyl)-9-oxo-13-trans-prostenamide] | 1 µg/mL | – | 0.4 mg/kg | 10 µg/mL (≈ 27.4 µM) | 25 µg/mL (≈ 68.4 µM) | 10 µg/mL (≈ 27.4 µM) | 25 µg/mL (≈ 68.4 µM) | 25 µg/mL (≈ 68.4 µM) | 25 µg/mL (≈ 68.4 µM) | 25 µg/mL (≈ 68.4 µM) | 25 µg/mL (≈ 68.4 µM)
CCCCCC/C=C/[C@H]1CCC(=O)[C@@H]1CCCCCCC(=O)NC (relative stereo) [N-methyl-9-oxo-13-trans-prostenamide] | – | – | 4 to 8 mg/kg | – | 100 µg/mL (≈ 298 µM) | 25 µg/mL (≈ 74.5 µM) | 25 µg/mL (≈ 74.5 µM) | – | 50 µg/mL (≈ 149 µM) | 5 µg/mL (≈ 14.9 µM) | 100 µg/mL (≈ 298 µM)
